ChEMBL document CHEMBL1141545, “Synthesis and biological evaluation of 3,5-diaminoindazoles as cyclin-dependent kinase inhibitors” (Bioorg Med Chem Lett, 2008)

What was measured:
EJ = test: Antiproliferative activity against human EJ cells after 48 hrs; type: functional, cell-based
[1] = target: Cyclin-dependent kinase 4 (Homo sapiens, UniProt P11802); test: Inhibition of CDK4
[2] = target: Cyclin-dependent kinase 1 (Homo sapiens, UniProt P06493); test: Inhibition of CDK1
HCT-116 = test: cells; conditions: Homo sapiens, HCT-116, 48 h
Description: Antiproliferative activity against human HCT116 cells after 48 hrs

[3] = target: Cyclin-dependent kinase 2 (Homo sapiens, UniProt P24941); test: Inhibition of CDK2
[4] = Selectivity for CDK2 over CDK1
A549 = test: Antiproliferative activity against human A549 cells after 48 hrs; type: functional, cell-based; conditions: A549, 48 h
SW-620 = test: Antiproliferative activity against human SW620 cells after 48 hrs; type: functional, cell-based; conditions: SW-620, 48 h

Chain of Cyclin-dependent kinase 1 (P06493 whole entry): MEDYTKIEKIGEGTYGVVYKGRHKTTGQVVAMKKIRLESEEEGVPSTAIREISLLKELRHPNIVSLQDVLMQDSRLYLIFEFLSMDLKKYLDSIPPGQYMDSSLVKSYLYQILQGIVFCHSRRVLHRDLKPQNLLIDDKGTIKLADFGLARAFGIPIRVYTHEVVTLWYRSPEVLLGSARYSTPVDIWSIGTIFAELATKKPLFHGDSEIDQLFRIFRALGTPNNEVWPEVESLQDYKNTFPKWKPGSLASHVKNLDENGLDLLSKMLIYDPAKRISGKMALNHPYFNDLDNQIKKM
Chain of Cyclin-dependent kinase 4 (P11802 whole entry): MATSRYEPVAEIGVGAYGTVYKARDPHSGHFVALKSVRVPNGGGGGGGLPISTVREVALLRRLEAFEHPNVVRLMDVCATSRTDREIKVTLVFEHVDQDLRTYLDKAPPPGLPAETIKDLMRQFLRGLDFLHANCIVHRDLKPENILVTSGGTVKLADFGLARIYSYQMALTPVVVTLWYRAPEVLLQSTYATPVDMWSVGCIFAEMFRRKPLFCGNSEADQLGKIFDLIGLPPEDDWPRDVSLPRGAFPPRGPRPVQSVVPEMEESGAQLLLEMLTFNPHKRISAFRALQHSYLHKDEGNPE

Row | Structure (SMILES) | IC50 [1] [nM] | IC50 [2] [nM] | IC50 (HCT-116) [nM] | IC50 [3] [nM] | Ratio IC50 [4] | IC50 (A549) [nM] | IC50 (SW-620) [nM] | IC50 (EJ) [nM]
1 | CS(=O)(=O)c1ccc(CC(=O)Nc2n[nH]c3ccc(N4CCCS4(=O)=O)cc23)cc1 | 1400 | 200 | 48000 | 22 | – | – | – | 35000
2 | O=C(Cc1ccccc1)Nc1n[nH]c2ccc(N3CCCC3=O)cc12 | – | – | – | 170 | – | – | – | –
3 | O=C(Cc1ccc(O)cc1)Nc1n[nH]c2ccc(N3CCCS3(=O)=O)cc12 | 1750 | 28 | 6530 | 9 | – | – | 3830 | 5200
4 | O=C(Cc1ccc(Cl)cc1)Nc1n[nH]c2ccc(N3CCCS3(=O)=O)cc12 | 2000 | 12 | 1230 | 10 | – | 1500 | 930 | 930
5 | O=C(Cc1cccc2ccccc12)Nc1n[nH]c2ccc(N3CCCS3(=O)=O)cc12 | 3000 | 67 | 2300 | 20 | < 10 | 1400 | 930 | 1300
6 | O=C(Cc1ccc(-c2ccncc2)cc1)Nc1n[nH]c2ccc(N3CCCS3(=O)=O)cc12 | 1330 | 60 | 2500 | 30 | < 10 | 1400 | – | 1050
7 | CSc1ccc(CC(=O)Nc2n[nH]c3ccc(N4CCCS4(=O)=O)cc23)cc1 | 1300 | 40 | 820 | 10 | – | 2470 | 150 | 280
8 | O=C(Cc1ccccc1)Nc1n[nH]c2ccc(N3C(=O)CNC3=O)cc12 | – | – | – | 2000 | – | – | – | –
9 | O=C(Cc1ccc(F)cc1)Nc1n[nH]c2ccc(N3CCCS3(=O)=O)cc12 | 3000 | 50 | – | 20 | < 10 | – | – | –
10 | Nc1ccc(CC(=O)Nc2n[nH]c3ccc(N4CCCS4(=O)=O)cc23)cc1 | 2200 | 60 | – | 16 | < 10 | – | – | –
11 | CCCCN(CCCC)c1ccc2[nH]nc(NC(=O)Cc3ccccc3)c2c1 | – | – | – | > 100000 | – | – | – | –
12 | O=C(Cc1ccc(-c2ccccc2)cc1)Nc1n[nH]c2ccc(N3CCCS3(=O)=O)cc12 | 2200 | 42 | 180 | 14 | – | 55 | 40 | 52
13 | CCNc1ccc2[nH]nc(NC(=O)Cc3ccccc3)c2c1 | – | – | – | 500 | – | – | – | –
14 | O=C(Cc1cccc(Br)c1)Nc1n[nH]c2ccc(N3CCCS3(=O)=O)cc12 | 1800 | 47 | – | 7 | < 10 | – | – | –
15 | Cc1cccc(CC(=O)Nc2n[nH]c3ccc(N4CCCS4(=O)=O)cc23)c1 | 4000 | 50 | – | 10 | < 10 | – | – | –
16 | O=C(Cc1ccc(Br)cc1)Nc1n[nH]c2ccc(N3CCCS3(=O)=O)cc12 | 2000 | 22 | 1400 | 7 | < 10 | 3870 | 2000 | 1570
17 | O=C(Cc1cccc(F)c1)Nc1n[nH]c2ccc(N3CCCS3(=O)=O)cc12 | 710 | 30 | – | 10 | < 10 | – | – | –

Second part, led by results:

Row | IC50 [1] [nM] | IC50 [2] [nM] | IC50 (HCT-116) [nM] | IC50 [3] [nM] | Ratio IC50 [4] | IC50 (A549) [nM] | IC50 (SW-620) [nM] | Structure (SMILES) | IC50 (EJ) [nM]
18 | 210 | 28 | 830 | 10 | < 10 | 350 | – | CN(C)c1ccc(CC(=O)Nc2n[nH]c3ccc(N4CCCS4(=O)=O)cc23)cc1 | –
19 | 1800 | 40 | 1770 | 7 | < 10 | 2570 | 1560 | Cc1ccc(CC(=O)Nc2n[nH]c3ccc(N4CCCS4(=O)=O)cc23)cc1 | 1670
20 | 1050 | 34 | – | 10 | < 10 | – | – | O=C(Cc1cccc(Cl)c1)Nc1n[nH]c2ccc(N3CCCS3(=O)=O)cc12 | –
21 | – | – | – | 7100 | – | – | – | O=C(Cc1ccccc1)Nc1n[nH]c2ccc(N3CCCCC3=O)cc12 | –
22 | 890 | 80 | – | 24 | < 10 | – | – | O=C(Cc1ccccc1Cl)Nc1n[nH]c2ccc(N3CCCS3(=O)=O)cc12 | –
23 | > 1000 | 60 | 220 | 40 | – | 50 | – | CCN(CC)c1ccc(CC(=O)Nc2n[nH]c3ccc(N4CCCS4(=O)=O)cc23)cc1 | 55
24 | 750 | 150 | 1200 | – | – | 1100 | – | O=C(Cc1ccc(N2CCCCC2)cc1)Nc1n[nH]c2ccc(N3CCCS3(=O)=O)cc12 | 980
25 | 1600 | 40 | 310 | 9 | < 10 | 90 | 80 | O=C(Cc1ccc2ccccc2c1)Nc1n[nH]c2ccc(N3CCCS3(=O)=O)cc12 | 120
26 | 3700 | – | 4600 | 36 | – | – | 2200 | O=C(Cc1ccccc1)Nc1n[nH]c2ccc(N3CCCS3(=O)=O)cc12 | 3600
27 | – | – | – | 2000 | – | – | – | O=C(Cc1ccccc1)Nc1n[nH]c2ccc([N+](=O)[O-])cc12 | –
28 | – | – | – | 1800 | – | – | – | CCCN(CCC)c1ccc2[nH]nc(NC(=O)Cc3ccccc3)c2c1 | –
29 | – | – | – | 200 | – | – | – | CCN(CC)c1ccc2[nH]nc(NC(=O)Cc3ccccc3)c2c1 | –
